Experimental data published in ChEMBL document CHEMBL1131863, “Synthesis and antibacterial activity of HMR 3647 a new ketolide highly potent against erythromycin-resistant and susceptible pathogens” (1999).
≈ marks a conversion by molar mass, not a printed value. Calls of active or inactive are those of the source. The rule behind the calls is not given here.

Assays:
Escherichia coli [1] = test: The compound was tested in vitro for antibacterial activity against Escherichia coli 250 UCS.; assay type: functional
Streptococcus pneumoniae [2] = test: The compound was tested in vitro for antibacterial activity against constitutively erythromycin resistant Streptococcus pneumoniae 030SJ1.; assay type: functional
Staphylococcus aureus [3] = test: The compound was tested in vitro for antibacterial activity against constitutively erythromycin resistant Staphylococcus aureus 011CB20.; assay type: functional
Streptococcus pneumoniae [4] = test: The compound was tested in vitro for antibacterial activity against constitutively erythromycin resistant Streptococcus pneumoniae 030CR18c.; assay type: functional
Haemophilus influenzae [5] = test: The compound was tested in vitro for antibacterial activity against Haemophilus influenza 351HT3.; assay type: functional
Streptococcus pneumoniae [6] = test: The compound was tested in vitro for antibacterial activity against inducibly erythromycin resistant Streptococcus pneumoniae 030J5i.; assay type: functional
Staphylococcus aureus [7] = test: The compound was tested in vitro for antibacterial activity against inducibly erythromycin resistant Staphylococcus aureus 011GO25i.; assay type: functional
Staphylococcus aureus [8] = test: The compound was tested in vitro for antibacterial activity against erythromycin susceptible Staphylococcus aureus 011UC4.; assay type: functional
Streptococcus pyogenes [9] = test: The compound was tested in vitro for antibacterial activity against erythromycin susceptible Streptococcus pyogenes 02A1UC1.; assay type: functional
Streptococcus pneumoniae [10] = test: The compound was tested in vitro for antibacterial activity against erythromycin susceptible Streptococcus pneumoniae 032UC1.; assay type: functional
Streptococcus pneumoniae [11] = test: The compound was tested in vitro for antibacterial activity against constitutively erythromycin resistant Streptococcus pneumoniae 030PW23c.; assay type: functional
Haemophilus influenzae [12] = test: (§1) The compound was tested in vivo for antibacterial activity against AmpR beta(-) Haemophilus influenza 351TO19 in mice after oral administration; assay type: functional
Haemophilus influenzae [13] = test: (§2) The compound was tested in vivo for antibacterial activity against Haemophilus influenza 351GR1 in mice after oral administration; assay type: functional
Haemophilus influenzae [14] = test: (§3) The compound was tested in vivo for antibacterial activity against AmpR beta(+) Haemophilus influenza 351RD7 in mice after oral administration; assay type: functional
Mus musculus [15] = test: The compound was tested in vivo for antibacterial activity against erythromycin susceptible Staphylococcus aureus 011UC4 in mice after oral administration; assay type: functional
Mus musculus [16] = test: as §1; assay type: functional
Mus musculus [17] = test: The compound was tested in vivo for antibacterial activity against erythromycin susceptible Streptococcus pneumoniae 032UC1 in mice after oral administration; assay type: functional
Streptococcus pneumoniae [18] = test: The compound was tested in vitro for antibacterial activity against constitutively erythromycin resistant Streptococcus pneumoniae 030CR18c; assay type: functional
Staphylococcus aureus [19] = test: The compound was tested in vitro for antibacterial activity against inducibly erythromycin resistant Staphylococcus aureus 011GO25i; assay type: functional
Mus musculus [20] = test: as §2; assay type: functional
Mus musculus [21] = test: The compound was tested in vivo for antibacterial activity against inducibly erythromycin resistant Streptococcus pneumoniae 030RO1 in mice after oral administration; assay type: functional
Streptococcus pneumoniae [22] = test: The compound was tested in vitro for antibacterial activity against constitutively erythromycin resistant Streptococcus pneumoniae 030PW23c; assay type: functional
Mus musculus [23] = test: The compound was tested in vivo for antibacterial activity against constitutively erythromycin resistant Streptococcus pneumoniae 030MV2 in mice after oral administration; assay type: functional
Mus musculus [24] = test: The compound was tested in vivo for antibacterial activity against constitutively erythromycin resistant Streptococcus pneumoniae 030Cr29 in mice after oral administration; assay type: functional
Escherichia coli [25] = test: The compound was tested in vitro for antibacterial activity against Escherichia coli 250 UCS; assay type: functional
Streptococcus pneumoniae [26] = test: The compound was tested in vitro for antibacterial activity against inducibly erythromycin resistant Streptococcus pneumoniae 030J5i; assay type: functional
Streptococcus pneumoniae [27] = test: The compound was tested in vitro for antibacterial activity against constitutively erythromycin resistant Streptococcus pneumoniae 030SJ1; assay type: functional
Mus musculus [28] = test: The compound was tested in vivo for antibacterial activity against constitutively erythromycin resistant Streptococcus pneumoniae 030SJ1 in mice after oral administration; assay type: functional
Streptococcus pneumoniae [29] = test: The compound was tested in vitro for antibacterial activity against erythromycin susceptible Streptococcus pneumoniae 032UC1; assay type: functional
Mus musculus [30] = test: as §3; assay type: functional
Streptococcus pyogenes [31] = test: The compound was tested in vitro for antibacterial activity against erythromycin susceptible Streptococcus pyogenes 02A1UC1; assay type: functional
Staphylococcus aureus [32] = test: The compound was tested in vitro for antibacterial activity against constitutively erythromycin resistant Staphylococcus aureus 011CB20; assay type: functional
Mus musculus [33] = test: The compound was tested in vivo for antibacterial activity against erythromycin susceptible Streptococcus pyogenes 02A1UC1 in mice after oral administration; assay type: functional
Mus musculus [34] = test: The compound was tested in vivo for antibacterial activity against inducibly erythromycin resistant Staphylococcus aureus 011GO3 in mice after oral administration; assay type: functional
Staphylococcus aureus [35] = test: The compound was tested in vitro for antibacterial activity against erythromycin susceptible Staphylococcus aureus 011UC4; assay type: functional
Haemophilus influenzae [36] = test: The compound was tested in vitro for antibacterial activity against Haemophilus influenza 351HT3; assay type: functional
Haemophilus influenzae [37] = test: The compound was tested in vitro for antibacterial activity against 39 strains of Haemophilus influenza AmpR; Value is 2.5/10; assay type: functional, organism-based
Haemophilus influenzae [38] = test: The compound was tested in vitro for antibacterial activity against 47 strains of Haemophilus influenza AmpS; Value is 1.2/5; assay type: functional, organism-based
Staphylococcus sp. = test: The compound was tested in vitro for antibacterial activity against 66 strains of inducibly erythromycin resistant Staphylococci; Value is 40/40; assay type: functional, organism-based
Streptococcus pneumoniae [39] = test: The compound was tested in vitro for antibacterial activity against 32 strains of inducibly erythromycin resistant Streptococcus pneumoniae Value is 40/40; assay type: functional, organism-based
Mus musculus [40] = test: The compound was tested in vivo for antibacterial activity against constitutively erythromycin resistant Streptococcus pneumoniae 030SJ6 in mice after oral administration; assay type: functional
Streptococcus pneumoniae [41] = test: The compound was tested in vitro for antibacterial activity against 40 strains of constitutively erythromycin resistant Streptococcus pneumoniae Value is 40/40; assay type: functional, organism-based
Streptococcus pneumoniae [42] = test: The compound was tested in vitro for antibacterial activity against 53 strains of Streptococcus pneumoniae PenR Value is 0.3/40; assay type: functional, organism-based
Streptococcus sp. = test: The compound was tested in vitro for antibacterial activity against 31 strains of erythromycin resistant Streptococci; Value is 1.2/40; assay type: functional, organism-based

| Compound | MIC (Escherichia coli [1]) | MIC (Streptococcus pneumoniae [2]) | MIC (Staphylococcus aureus [3]) | MIC (Streptococcus pneumoniae [4]) | MIC (Haemophilus influenzae [5]) | MIC (Streptococcus pneumoniae [6]) | MIC (Staphylococcus aureus [7]) | MIC (Staphylococcus aureus [8]) | MIC (Streptococcus pyogenes [9]) | MIC (Streptococcus pneumoniae [10]) | ED50 (Mus musculus [15]) | ED50 (Mus musculus [16]) | ED50 (Mus musculus [17]) | ED50 (Mus musculus [20]) | ED50 (Mus musculus [21]) | ED50 (Mus musculus [23]) | ED50 (Mus musculus [24]) | ED50 (Mus musculus [28]) | ED50 (Mus musculus [30]) | ED50 (Mus musculus [33]) | further results |
| --- | --- | --- | --- | --- | --- | --- | --- | --- | --- | --- | --- | --- | --- | --- | --- | --- | --- | --- | --- | --- | --- |
| CC[C@H]1OC(=O)[C@H](C)C(=O)[C@H](C)[C@@H](O[C@@H]2O[C@H](C)C[C@H](N(C)C)[C@H]2O)[C@](C)(OC)C[C@@H](C)C(=O)[C@H](C)[C@H]2N(CCCCn3cnc(-c4ccccc4)c3)C(=O)O[C@]12C | 40 µg/mL (≈ 49.3 µM) | 2.5 µg/mL (≈ 3.08 µM) | 40 µg/mL (≈ 49.3 µM) | 1.2 µg/mL (≈ 1.48 µM) | 2.5 µg/mL (≈ 3.08 µM) | 2.5 µg/mL (≈ 3.08 µM) | 0.3 µg/mL (≈ 0.37 µM) | 0.08 µg/mL (≈ 0.0986 µM) | 0.02 µg/mL (≈ 0.0247 µM) | 0.02 µg/mL (≈ 0.0247 µM) |  |  |  |  |  |  |  |  |  |  | MIC (Streptococcus pneumoniae [11]): 20 µg/mL (≈ 24.7 µM) |
| CC1(C)S[C@@H]2[C@H](NC(=O)[C@H](N)c3ccccc3)C(=O)N2[C@H]1C(=O)O [AMPICILLIN] |  |  |  |  |  |  |  |  |  |  |  |  |  |  |  |  |  |  |  |  | ED50 (Haemophilus influenzae [12]): 39 mg/kg; ED50 (Haemophilus influenzae [13]): 5.5 mg/kg; ED50 (Haemophilus influenzae [14]): > 600 mg/kg |
| CC[C@H]1OC(=O)[C@H](C)[C@@H](O[C@H]2C[C@@](C)(OC)[C@@H](O)[C@H](C)O2)[C@H](C)[C@@H](O[C@@H]2O[C@H](C)C[C@H](N(C)C)[C@H]2O)[C@](C)(O)C[C@@H](C)CN(C)[C@H](C)[C@@H](O)[C@]1(C)O [AZITHROMYCIN] |  |  |  |  |  |  |  |  |  |  | 30 mg/kg | 145 mg/kg | 6 mg/kg | 56 mg/kg | > 50 mg/kg | > 50 mg/kg | > 50 mg/kg | > 50 mg/kg | 94 mg/kg | 16 mg/kg | MIC (Streptococcus pneumoniae [18]): 40 µg/mL (≈ 53.4 µM); MIC (Staphylococcus aureus [19]): 40 µg/mL (≈ 53.4 µM); MIC (Streptococcus pneumoniae [22]): 40 µg/mL (≈ 53.4 µM); MIC (Escherichia coli [25]): 20 µg/mL (≈ 26.7 µM); MIC (Streptococcus pneumoniae [26]): 40 µg/mL (≈ 53.4 µM); MIC (Streptococcus pneumoniae [27]): 40 µg/mL (≈ 53.4 µM); MIC (Streptococcus pneumoniae [29]): 0.15 µg/mL (≈ 0.2 µM); MIC (Streptococcus pyogenes [31]): 0.6 µg/mL (≈ 0.801 µM); MIC (Staphylococcus aureus [32]): 40 µg/mL (≈ 53.4 µM); ED50 (Mus musculus [34]): > 100 mg/kg; MIC (Staphylococcus aureus [35]): 0.3 µg/mL (≈ 0.401 µM); MIC (Haemophilus influenzae [36]): 1.2 µg/mL (≈ 1.6 µM) |
| CC[C@H]1OC(=O)[C@H](C)[C@@H](O[C@H]2C[C@@](C)(OC)[C@@H](O)[C@H](C)O2)[C@H](C)[C@@H](O[C@@H]2O[C@H](C)C[C@H](N(C)C)[C@H]2O)[C@](C)(OC)C[C@@H](C)C(=O)[C@H](C)[C@@H](O)[C@]1(C)O [CLARITHROMYCIN] |  |  |  |  |  |  |  |  |  |  | 6 mg/kg | > 300 mg/kg | 7.5 mg/kg | 71 mg/kg | > 50 mg/kg | > 50 mg/kg | > 50 mg/kg | > 50 mg/kg | 120 mg/kg | 16 mg/kg | MIC50/MIC90 (Haemophilus influenzae [37]): Active; MIC50/MIC90 (Haemophilus influenzae [38]): Active; MIC50/MIC90 (Staphylococcus sp.): Active; MIC (Streptococcus pneumoniae [18]): 40 µg/mL (≈ 53.5 µM); MIC (Staphylococcus aureus [19]): 40 µg/mL (≈ 53.5 µM); MIC50/MIC90 (Streptococcus pneumoniae [39]): Active; MIC (Streptococcus pneumoniae [22]): 40 µg/mL (≈ 53.5 µM); MIC (Escherichia coli [25]): 40 µg/mL (≈ 53.5 µM); MIC (Streptococcus pneumoniae [26]): 40 µg/mL (≈ 53.5 µM); MIC (Streptococcus pneumoniae [27]): 40 µg/mL (≈ 53.5 µM); MIC (Streptococcus pneumoniae [29]): 0.04 µg/mL (≈ 0.0535 µM); MIC (Streptococcus pyogenes [31]): 0.08 µg/mL (≈ 0.107 µM); ED50 (Mus musculus [40]): > 50 mg/kg; MIC50/MIC90 (Streptococcus pneumoniae [41]): Active; MIC (Staphylococcus aureus [32]): 40 µg/mL (≈ 53.5 µM); MIC50/MIC90 (Streptococcus pneumoniae [42]): Active; ED50 (Mus musculus [34]): 55 mg/kg; MIC (Staphylococcus aureus [35]): 0.3 µg/mL (≈ 0.401 µM); MIC50/MIC90 (Streptococcus sp.): Active; MIC (Haemophilus influenzae [36]): 5 µg/mL (≈ 6.68 µM) |
| CC[C@H]1OC(=O)[C@H](C)C(=O)[C@H](C)[C@@H](O[C@@H]2O[C@H](C)C[C@H](N(C)C)[C@H]2O)[C@](C)(OC)C[C@@H](C)C(=O)[C@H](C)[C@H]2N(CCCCn3cnc(-c4cccnc4)c3)C(=O)O[C@]12C [TELITHROMYCIN] | 10 µg/mL (≈ 12.3 µM) | 0.08 µg/mL (≈ 0.0985 µM) | 40 µg/mL (≈ 49.3 µM) | 0.15 µg/mL (≈ 0.185 µM) | 1.2 µg/mL (≈ 1.48 µM) | 0.02 µg/mL (≈ 0.0246 µM) | 0.08 µg/mL (≈ 0.0985 µM) | 0.04 µg/mL (≈ 0.0493 µM) | 0.02 µg/mL (≈ 0.0246 µM) | 0.02 µg/mL (≈ 0.0246 µM) | 10 mg/kg | 40 mg/kg | 1 mg/kg | 68 mg/kg | 4 mg/kg | 4 mg/kg | 4.5 mg/kg | 15 mg/kg | 57 mg/kg | 16 mg/kg | ED50 (Mus musculus [40]): 6.5 mg/kg; MIC (Streptococcus pneumoniae [11]): 0.08 µg/mL (≈ 0.0985 µM) |
